From patent US5874457A, “Imidazolylalkyl derivatives of imidazo[1,5-a]indol-3-one” (Pharmacia & Upjohn S.p.A., priority 1994, dated 1999) come the findings set out here.

For assay [1], the target named is T1, 5-HT3 (Rattus norvegicus, UniProt P35563).
T1 sequence (P35563 24-483): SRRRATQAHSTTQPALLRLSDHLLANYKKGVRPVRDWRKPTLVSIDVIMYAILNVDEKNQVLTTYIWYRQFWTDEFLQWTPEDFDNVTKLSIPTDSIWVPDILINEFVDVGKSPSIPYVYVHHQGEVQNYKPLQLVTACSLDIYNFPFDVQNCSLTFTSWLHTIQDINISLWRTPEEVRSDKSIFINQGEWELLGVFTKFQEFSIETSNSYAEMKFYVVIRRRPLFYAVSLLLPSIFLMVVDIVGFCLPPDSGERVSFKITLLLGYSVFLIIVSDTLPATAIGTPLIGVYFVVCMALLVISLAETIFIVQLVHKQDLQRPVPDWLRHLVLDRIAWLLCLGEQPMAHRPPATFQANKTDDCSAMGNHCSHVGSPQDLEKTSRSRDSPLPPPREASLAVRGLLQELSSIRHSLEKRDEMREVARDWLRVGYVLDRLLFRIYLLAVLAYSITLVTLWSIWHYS
As to the kind of experiment: Inhibition of the binding of ^3 H-BRL 43694 (5-HT3 binding affinity, rat entorhinal cortex). Further details: from tissue; host or cells: rat entorhinal cortex (brain cortical membranes). The text has this:
The following Table II summarized the data obtained in this in-vitro test for the representative compound of the invention coded as FCE 28572.
5-HT3 binding affinity for rat entorhinal

Assay [2] has as its target T1, 5-HT3. Put plainly: Inhibition of the von Bezold-Jarisch chemoreflex evoked by 5-HT in the anesthetized rat (5HT3 antagonist activity in vivo). Also on record: evoked by 5-HT in the anesthetized rat; from tissue; host or cells: living anesthetized rat (in vivo; native receptors, by own knowledge on cardiac vagal afferents). To be noted: 5-HT 30 μg/kg i.v. How it is done:
Pharmacol. 326, 36-44 (1984).
The following Table I reports in-vivo 5HT3 antagonist activity data obtained in this test for the representative compound of the invention 2-(5-methyl-1H-imidazol-4-yl)methyl-1,2-dihydro-imidazo[1,5-a]indol-3-one (internal code […]).
elicited by 5-HT (30 μg/kg i.v.) by FCE 28572
in the anesthetized rat. Values are mean ± in […]

For orientation: IC50 means the concentration at which inhibition is half-maximal. High values mean a need for much substance, low ones inhibition by little substance. As a reminder, the ED50 is the midpoint of the dose-response relation. `Cc1[nH]cnc1CN1Cc2cc3ccccc3n2C1=O` [FCE 28572, 2-(5-methyl-1H-imidazol-4-yl)methyl-1,2-dihydro-imidazo[1,5-a]indol-3-one] came in with an IC50 on 5-HT3 [1] of 23 nM. For the same compound, at 5-HT3 [2] (compound 100 μg/kg i.v., mean ± S.E.M. from 6 animals), the “% inhibition of the von Bezold-Jarisch reflex elicited by 5-HT” value was 86.7%. For the same compound, the ED50 on 5-HT3 [2] (iv, limits (10.4-31.7), read-out: ED50 (limits), inhibition of the von Bezold-Jarisch reflex elicited by 5-HT) turned out to be 0.0161 mg/kg.
